Assay results taken from publication PMC10320002, “In vitro antiproliferative, anti-inflammatory effects and molecular docking studies of natural compounds isolated from Sarcocephalus pobeguinii (Hua ex Pobég)” (Frontiers in Pharmacology, 2023).
Values joined by “and” are separate entries in the source; they are usually repeats but may differ in a detail not shown here. Equal entries are not always repeated. Structures can show the parent of a compound that is named as a salt. Where two headings read alike, the source gives them in different places.

Experiments:
HepG2 cells = assay: MTT antiproliferation assay, HepG2; type: cell-based, human; settings: for IC50: Homo sapiens, HepG2, 48 h, MTT; for SI values HepG2: IC50 of non-cancerous Vero cells divided by IC50 of HepG2
Description: (§1) Cancerous cell lines (MCF-7: human breast adenocarcinoma cells; HepG2: human hepatocellular carcinoma cells; Caco-2: human epithelial colorectal adenocarcinoma cells; A549: human epithelial lung adenocarcinoma cells), obtained from the American Type Culture Collection (ATCC) (Rockville, MD, United States of America), were cultured in Dulbecco’s Modified Eagle’s Medium (DMEM) high glucose (4.5 g/L) containing L-glutamine (4 mM) and sodium-pyruvate (Hyclone™) supplemented with 10% (v/v) fetal bovine serum (FBS) (Capricorn Scientific GmbH, South America), and incubated at 37°C with 5% CO2 in a humidified environment. African green monkey (Vero) kidney cells (also obtained from ATCC), a non-cancerous cell line, were grown in DMEM high glucose (4.5 g/L) containing L-glutamine (Lonza, Belgium) and supplemented with 5% FBS (Capricorn Scientific GmbH, South America) and 1% gentamicin (Virbac, RSA) in the same environment as cancer cells. The RAW 264.7 murine macrophage cells (obtained from ATCC) were cultured in DMEM high glucose (4.5 g/L) containing L-glutamine (Lonza, Belgium), supplemented with 10% FBS (Capricorn Scientific GmbH, South America) and 1% penicillin/streptomycin/fungizone (PSF) solution, and kept at 37°C in a 5% CO2 humidified environment.
(§2) The cancerous and non-cancerous cells were seeded at a density of 10^4 cells per well in 96-well microtiter plates, and they were incubated overnight at 37°C with 5% CO2 in a 5% CO2 humidified environment in order to allow the attachment of cells at the bottom of the plates. Then, the cells were exposed to increasing concentrations of compounds (100, 50, 25, 10 and 5 μg/mL) dissolved in dimethyl sulfoxide (DMSO) and further diluted in fresh culture medium. In this assay, the final concentration of DMSO in the culture medium was 0.5% used as negative control while doxorubicin hydrochloride (Pfizer, United States of America) was used as a positive control. The culture plates were incubated for 48 h at 37°C in a 5% CO2 humidified environment, after which the culture medium was discarded, and replaced by 200 µL of fresh culture medium with 30 µL of 3-(4,5-dimethylthiazol-2-yl)-2,5-diphenyl-2H-tetrazolium bromide (MTT) (5 mg/mL) dissolved in phosphate buffered saline ([Mosmann, 1983]). After 4 h of incubation, the medium was gently removed, and the formazan crystals were solubilized in 50 µL of DMSO. The absorbance was measured at 570 nm after shaking for 1 min on a microplate reader (Synergy Multi-Mode Reader, BioTek, Winooski, United States of America).
(§3) The cell viability rate was determined at each concentration of the compound as a percentage of cells treated with DMSO at 0.5% used as negative control. […] The selectivity index (Supporting Material) values were calculated for each compound by dividing the IC50 of non-cancerous cells by the IC50 of cancerous cells in the same units ([Mfotie Njoya et al., 2018]; [Mfotie Njoya et al., 2020]).

MCF-7 cells = assay: MTT antiproliferation assay, MCF-7; type: cell-based, human; settings: for IC50: Homo sapiens, MCF7, 48 h, MTT
Description: as §1, §2, §3

A549 cells = assay: MTT antiproliferation assay, A549; type: cell-based, human; settings: for IC50: Homo sapiens, A549, 48 h, MTT
Description: as §1, §2, §3

[1] = test system: NO production in LPS-stimulated RAW 264.7 cells; assay: Nitric oxide production inhibitory assay (Griess) in LPS-stimulated RAW 264.7 cells; type: cell-based, murine; settings: Mus musculus, RAW264.7; LPS (2 μg/mL), 24 h
Description: as §1
Nitric oxide (NO) production was evaluated in lipopolysaccharide (LPS)-stimulated RAW 264.7 cells by measuring the influence of tested compounds on the accumulation of nitrite, an indicator of NO in the cell supernatant, which can be detected with Griess reagent (Merck, Darmstadt, Germany). Briefly, the RAW 264.7 cells at their exponential growth phase were seeded at a density of 2×10^4 cells per well in 96 well-microtiter plates, and they were incubated overnight at 37°C in a 5% CO2 humidified environment to allow attachment. […] Then, culture medium containing LPS (2 μg/mL) was added to each well and further incubated for 24 h at 37°C in a 5% CO2 humidified environment. Thereafter, 100 μL of cell supernatant from each well were transferred into a new 96-well microtiter plate and an equal volume of Griess reagent was added according to protocol described by the manufacturer. The microtiter plate was incubated for 10 min in the dark at room temperature, and the absorbance of the mixture was measured at 550 nm on a microplate reader (Synergy Multi-Mode Reader, BioTek, Winooski, United States of America). The quantity of nitrite was determined from a sodium nitrite standard curve, and the percentage of NO production was calculated based on the ability of each tested sample to inhibit nitric oxide production by LPS-stimulated RAW 264.7 cells compared to the control (cells treated with LPS without samples which was considered as 100% NO production). Additionally, the cell viability of treated cells was determined by using the MTT assay as previously described ([Mosmann, 1983]).

15-LOX = biological target: T1, 15-LOX (Glycine max, UniProt P08170); assay: Soybean 15-LOX inhibitory assay (FOX); type: biochemical; settings: linoleic acid 140 μM, pH 7.4, 25°C
T1 construct: purchased Merck, Darmstadt, Germany
T1 sequence (P08170 1-839): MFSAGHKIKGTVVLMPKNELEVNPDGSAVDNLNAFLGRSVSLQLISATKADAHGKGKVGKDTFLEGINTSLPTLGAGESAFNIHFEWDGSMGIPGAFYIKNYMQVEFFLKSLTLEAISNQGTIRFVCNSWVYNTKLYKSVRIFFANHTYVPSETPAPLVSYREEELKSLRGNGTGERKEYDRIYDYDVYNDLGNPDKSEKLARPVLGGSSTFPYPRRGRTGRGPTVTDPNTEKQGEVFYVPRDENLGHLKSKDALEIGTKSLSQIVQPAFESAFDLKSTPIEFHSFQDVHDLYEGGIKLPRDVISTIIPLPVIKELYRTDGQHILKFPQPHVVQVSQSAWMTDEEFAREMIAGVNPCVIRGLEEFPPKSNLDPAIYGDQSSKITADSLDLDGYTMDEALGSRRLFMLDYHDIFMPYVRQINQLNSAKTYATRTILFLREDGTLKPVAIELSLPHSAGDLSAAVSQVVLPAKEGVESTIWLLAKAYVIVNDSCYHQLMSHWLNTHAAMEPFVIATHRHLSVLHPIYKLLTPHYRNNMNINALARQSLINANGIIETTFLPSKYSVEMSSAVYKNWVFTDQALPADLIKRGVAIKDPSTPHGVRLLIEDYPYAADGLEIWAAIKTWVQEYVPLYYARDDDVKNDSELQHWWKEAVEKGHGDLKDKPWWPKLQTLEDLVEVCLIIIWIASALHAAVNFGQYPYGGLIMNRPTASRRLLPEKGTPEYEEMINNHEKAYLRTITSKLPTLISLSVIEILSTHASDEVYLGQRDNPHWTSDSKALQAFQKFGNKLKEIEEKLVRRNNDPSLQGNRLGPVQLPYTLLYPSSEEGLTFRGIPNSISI
Description: This assay is based on the formation of the Fe^3+/xylenol orange (FOX) complex with maximal absorption at 560 nm ([Pinto et al., 2007]). Forty microliters of 15-LOX (final concentration: 200 UI/mL) from Glycine max (Merck, Darmstadt, Germany) was incubated with 20 µL of tested samples (100, 50, 25, 10, and 5 μg/mL) at 25°C for 5 min, with DMSO at 10% (v/v) being used as negative control. Thereafter, 40 µL of linoleic acid (final concentration, 140 μM) prepared in Tris-HCl buffer (50 mM, pH 7.4) was added, and the plates were further incubated at 25°C for 20 min in the dark. The assay was terminated by adding 100 μL of FOX reagent [sulfuric acid (30 mM), xylenol orange (100 μM), ferrous II) sulfate (100 μM), dissolved in methanol/water (9:1)], followed by the incubation of the plates at 25°C for 30 min in the dark. Finally, the absorbance was measured at 560 nm on a microplate reader (Epoch, BioTek, Winooski, United States of America). The blanks were made in the same way as tested samples except that the substrate was added after the FOX reagent. The 15-LOX inhibitory activity was calculated by using the following formula: 15−LOX inhibitory activity %=100−Abs sample−Abs blank/Abs negative control−Abs blank×100 (1)

Caco-2 cells = assay: MTT antiproliferation assay, Caco-2; type: cell-based, human; settings: for IC50: Homo sapiens, Caco-2, 48 h, MTT
Description: as §1, §2, §3

Vero cells = assay: MTT antiproliferation assay, non-cancerous Vero cells; type: cell-based, African green monkey; settings: Chlorocebus sabaeus, Vero; 48 h, MTT
Description: as §1, §2, §3

[2] = read-out: IC50 values 15-LOX (converted)

| SMILES | IC50 (HepG2 cells) | IC50 (MCF-7 cells) | IC50 (A549 cells) | IC50 [1] | IC50 (15-LOX; [2]) | IC50 (Caco-2 cells) | IC50 (Vero cells) | SI values HepG2 (HepG2 cells) | IC50 (15-LOX; IC50 values 15-LOX) [µM] | SI values MCF7 (MCF-7 cells; IC50 of non-cancerous Vero cells divided by IC50 of MCF-7) | SI values A549 (A549 cells; IC50 of non-cancerous Vero cells divided by IC50 of A549) | SI values Caco-2 (Caco-2 cells; IC50 of non-cancerous Vero cells divided by IC50 of Caco-2) |
| --- | --- | --- | --- | --- | --- | --- | --- | --- | --- | --- | --- | --- |
| C[C@H]1[C@H](C)CC[C@]2(C)CC[C@]3(C)C(=CC[C@@H]4[C@@]5(C)CC[C@H](O)C(C)(C)[C@@H]5CC[C@]43C)[C@H]12 [Compound 5, α-amyrin (3β-hydroxy-urs-12-en-3-ol)] | 84.5 µg/mL and 198 µM | 82.8 µg/mL and 194 µM | 217 µM and 92.7 µg/mL | > 100 µg/mL and > 234 µM | > 234 µM | > 100 µg/mL and > 234 µM | > 100 µg/mL and > 234 µM | – | – | – | – | – |
| C[C@H]1[C@H](C)CC[C@]2(C(=O)O)CC[C@]3(C(=O)O)C(=CC[C@@H]4[C@@]5(C)CC[C@H](O)C(C)(C)[C@@H]5CC[C@]43C)[C@H]12 [Compound 8, quinovic acid] | 100 µg/mL and 205 µM | 98 µg/mL and 201 µM | 204 µM and 99.5 µg/mL | 86 µg/mL and 177 µM | – | 81.6 µg/mL and 168 µM | > 100 µg/mL and > 205 µM | – | 71.9 | – | – | – |
| COc1cccc2c1C(=O)c1c(O)c3c(c(O)c1C2=O)C[C@@](O)(C(=O)CO)C[C@@H]3O[C@H]1C[C@H](N)[C@H](O)[C@H](C)O1 [Doxorubicin, doxorubicin hydrochloride, reference compound] | 0.56 ± 0.05 µM | 1.09 ± 0.06 µM | 0.71 ± 0.05 µM | – | – | 4.97 ± 0.74 µM | 4.85 ± 0.51 µM | 8.66 | – | 4.45 | 6.83 | 0.98 |
| O=c1c(O)c(-c2ccc(O)c(O)c2)oc2cc(O)cc(O)c12 [Quercetin, quercetin, reference compound] | – | – | – | 12.8 µg/mL and 42.5 µM | – | – | – | – | – | – | – | – |

The next lines start with results.

| IC50 (HepG2 cells) | IC50 (MCF-7 cells) | IC50 (A549 cells) | IC50 [1] | IC50 (15-LOX; [2]) | IC50 (Caco-2 cells) | SMILES | IC50 (Vero cells) | SI values HepG2 (HepG2 cells) | IC50 (15-LOX; IC50 values 15-LOX) [µM] | SI values MCF7 (MCF-7 cells; IC50 of non-cancerous Vero cells divided by IC50 of MCF-7) | SI values A549 (A549 cells; IC50 of non-cancerous Vero cells divided by IC50 of A549) | SI values Caco-2 (Caco-2 cells; IC50 of non-cancerous Vero cells divided by IC50 of Caco-2) |
| --- | --- | --- | --- | --- | --- | --- | --- | --- | --- | --- | --- | --- |
| 80 µg/mL and 150 µM | > 100 µg/mL and > 187 µM | > 187 µM and > 100 µg/mL | > 100 µg/mL and > 187 µM | 42.4 µM and 41.2 µM | > 100 µg/mL and > 187 µM | C[C@@H]1CC[C@]2(C(=O)O)CC[C@]3(C(=O)O)C(=CCC4[C@@]5(C)CC[C@H](O)C(CO)(CO)C5CC[C@]43C)C2[C@H]1C (stereo partly shown) [Compound 3, chletric acid] | > 100 µg/mL and > 187 µM | – | – | – | – | – |
| 54.2 µg/mL and 127 µM | 81.3 µg/mL and 191 µM | 177 µM and 75.6 µg/mL | > 100 µg/mL and > 234 µM | > 234 µM | > 100 µg/mL and > 234 µM | CC1(C)CC[C@]2(C)CC=C3[C@]4(C)CC[C@H]5C(C)(C)[C@@H](O)CC[C@]5(C)[C@H]4CC[C@@]3(C)[C@@H]2C1 [Compound 4, taraxerol] | > 100 µg/mL and > 234 µM | – | – | – | – | – |
| 73.9 µg/mL and 167 µM | > 100 µg/mL and > 226 µM | > 226 µM and > 100 µg/mL | 95.6 µg/mL and 216 µM | 147 µM | > 100 µg/mL and > 226 µM | CC1(C)CC[C@]2(CO)CC[C@]3(C)C(=CC[C@@H]4[C@@]5(C)CC[C@H](O)C(C)(C)[C@@H]5CC[C@]43C)[C@@H]2C1 [Compound 7, erythrodiol] | 84 µg/mL and 190 µM | 1.13 | – | – | – | – |
